Results reported in patent US10342854B2, “Leptin active peptide having cd loop and E helix region mutations, coding gene thereof, and application thereof” (SHANGHAI YUANXIN BIOCHEMICAL SCIENCE AND TECHNOLOGY CO. LTD., priority 2015, dated 2019).
“Also recorded” adds a separate entry of the source.

Tests used:
[1] = system: 3T3-L1 preadipocytes; test: MTT lipid-lowering (adipocyte-degrading) activity analysis on 3T3-L1 preadipocyte line; type: cell-based; settings: for adipocyte-degrading (adipocyte lysis) activity compared with positive controls H-LEP and Ros: preadipocytes stage, early differentiation stage D0-D2 and mature adipocyte stage D9, PEP-E 10^−6M, Ros 0.5 μM
Procedure: Lipid degradation activity of the synthesized leptin active peptide having CD-loop and helix E region mutations is analyzed on a cellular level by taking a 3T3-L1 preadipocyte line as a model. Specific operations are as follows:
a. leptin active peptide having CD-loop and helix E region mutations (PEP-E): diluted to 10^−3M with purified water and preserved at −20 degree C. for later use. After an experiment is started, working concentrations have 3 concentration gradients, that is, 10^−6M, 10−9M and 10^−11M;
b. positive control 1: H-LEP recombinant human-derived leptin protein (10221-HNAE, Beijing Sino Biological Inc.), diluted to 10^−6M with purified water and preserved at −20 degree C. for later use. After an experiment is started, the working concentration is 10^−9M.
c. positive control 2: Ros rosiglitazone, R2408, Sigma), diluted to a stock solution with a concentration of 2518 μM with DMSO and preserved at −20 degree C. for later use. After an experiment is started, the stock solution is diluted to a working solution of 0.5 μM with cell culture fluid.
d. negative control (Control): equivalent quantity of PBS
(1) inoculating 3T3-L1 preadipocytes in coming cell bind 96-well plates (totally inoculated with 3 plates, respectively plate a, plate b and plate c), wherein the inoculation density is 4500 cells/well; and marking, and standing and culturing at 37 degree C. in a 5% CO2 incubator. Each sample of each plate is operated repeatedly for 3 times, and the whole experiment is repeated for 3 times;
(2) continuously culturing for 48 hours after the cells are merged to 100% (enabling the cells to exit from a growth cycle, and starting induced differentiation.); and
i, taking out the plate a, respectively adding different amounts of leptin active peptide having CD-loop and helix E region mutations (PEP-E) to enable the working concentrations to be respectively 3 concentration gradients, that is, 10^−6M, 10^−9M and […], setting 2 positive controls, a negative control (PBS) and a blank control (3 repeated holes are set for each sample), and continuously standing and culturing at 37 degree C. in the 5% CO2 incubator.
ii, when culturing to 45 hours (that is, 3 hours before the end of drug treatment), taking out the plate a, and measuring MTT (preadipocytes). Specific operations: adding 20 μL of 5 mg/mL of MTT solution into each well, continuously standing and culturing at 37 degree C. in the 5% CO2 incubator for 3 hours, sucking and discarding the culture solution in the wells, adding 150 μL of DMSO into each well, horizontally shaking for 10 min, detecting a light absorption value at 492 nm by a microplate reader, and drawing a growth curve. […]
ii, when culturing to 45 hours (that is, 3 hours before the end of drug treatment), taking out the plate b, and measuring MTT (at the early differentiation stage, D0-D2). Specific operations: adding 20 μL of 5 mg/mL of MTT solution into each well; continuously standing and culturing at 37 degree C. in the 5% CO2 incubator for 3 hours, sucking and discarding the culture solution in the wells; adding 150 μL of DMSO into each well, horizontally shaking for 10 min, detecting a light absorption value at 492 nm by a microplate reader, and drawing a growth curve; […]

[2] = cited from earlier work

## H-LEP: recombinant human-derived leptin protein (10221-HNAE, Beijing Sino Biological Inc.) [reference compound]
[1]; H-LEP 10^−9M, Ros 0.5 μM vs. PBS, P<0.05
  adipocyte lysis activity of positive control vs. negative control: obviously better than that of the negative control

## SCHLHWAPGLETLDSGVQEASGY (An amino acid sequence of the leptin active peptide having CD-loop and helix E region mutations) [PEP-E]
[1]; 10^−6M, 10^−9M, 10^−11M, preadipocytes, D0-D2, D9
  dependence of lipid-lowering activity on concentration and cell differentiation period: obvious concentration dependence and dependence in a cell differentiation period
[1]; 10^−9M, 10^−11M, H-LEP 10^−9M, P<0.05
  adipocyte-degrading (adipocyte lysis) activity compared with positive controls H-LEP and Ros: obviously better than that of the H-LEP; also recorded: obviously better than that of the Ros
[1]; 10^−9M, 10^−11M, H-LEP 10^−9M, P<0.05, listed as leptin active peptide having CD-loop and helix E region mutations
  adipocyte-degrading (adipocyte lysis) activity compared with positive controls H-LEP and Ros: obviously better than that of positive control-human-derived leptin protein (H-LEP) and a commercially available drug rosiglitazone (Ros,)
[1]; three stages, three concentrations compared
  lipid-lowering activity: stage and concentration of optimal effect: optimal effect at the D0-D2 stage when the concentration is 10^−6M

## wild type human-derived leptin protein: leptin protein given to obese patients in the first human experiment
[2]; 73 tested obese patients
  weight loss effect in obese patients: most of the patients do not have an obvious weight loss effect
[2]; only 2 of 73 patients, within 24 weeks
  weight loss: 35 pounds
